The record followed here is US20220054658A1, “CONJUGATES” (Transfection Holdings Limited, priority 2018, published 2022).

“Also recorded” adds a separate entry of the source.

The subject of one data set is C. elegans. Briefly: Conjugate uptake in C. elegans (dye and praziquantel conjugates, fluorescence microscopy). Type of data set: in vivo, Caenorhabditis elegans. To be noted: for uptake: location of fluorescence in C. elegans: 50 μM. The protocol:
Nematode Growth Media (NGM) plates containing C. elegans were washed with 1.0-1.5 mL of standard M9 buffer and the washes were collected in an Eppendorf tube. The liquid containing the C. elegans was then spun for 1 min at room temperature at 10,000 rpm. The supernatant was removed, and fresh M9 buffer was added (500 μL) to generate a new stock solution of M9 buffer containing the C. elegans.
A C. elegans suspension (100 μL) was added a defined amount of M9 buffer (determined by the final desired concentration of compound to be tested: 399 μL in the case of the BODIPY tagged derivatives) contained within a separate Eppendorf tube. To this was then added a 25 mM solution of the compound in DMSO (1 μL). The resulting suspension was mixed using a vortex instrument.
The resulting mixture was incubated at room temperature for 2 to 4 h. in the dark (using aluminium foil to screen the tube, which was also stored in a cabinet).
Other samples were incubated overnight. Here, OP50 bacteria (3 μL) were added to the worms for feeding purposes, and the worms were kept in the dark at 20° C.
After the incubation, the tube contents were mixed gently by hand (typically by simple rotation of the tube), so as to achieve a homogenous suspension. A sample of the suspension (250 μL) was taken and mixed with M9 buffer (500 μL). The resulting suspension was placed in a centrifuge and spun at room temperature at 10,000 rpm for 1 min. The supernatant was removed, and the washing process was repeated twice more, each time using further quantities of fresh M9 buffer (500 μL each time). After the final washing sufficient supernatant was removed so as to leave a final sample volume of approximate 30 μL.
A 1.5% agarose solution in water was pre-warmed for 60 to 90 s. in a standard household style microwave (set to Power 4). Two drops of this solution was removed and placed on a glass slide. The glass slide was covered with a second glass slide. After 1 min., the slides were slid carefully apart, with the agarose remaining on one of the slides. Onto this slide was placed an aliquot of the final C. elegans solution (15 to 20 μL). To this was added a 20 mM sodium azide solution (5 μL) to inhibit nematode mobility. Vaseline was then placed around the agarose area before replacing the second slide. The slides were not pressed together.
The nematodes were then analysed using a Zeiss Axiskop 2 Plus microscope with a Hamamatsu Orca-ER (CA 742-95) camera. The images were resolved using OpenLab on a Mac operating system.
Compounds 1-11 were evaluated after 3 h and overnight incubation at a 50 μM concentration using the general uptake protocol described for C. elegans.
In order to compare the ability of a conjugate to improve the uptake of the drug praziquantel, two praziquantel derivatives were generated. Praziquantel was tagged with a BODIPY fluorescent tag (compound 12) and incorporated into a conjugate of the invention (compound 13). Compounds 12 and 13 were evaluated at a concentration of 50 μM using the C. elegans uptake protocol described above for compounds 1-11. Microscopic readings were taken after 3, 24 and 72 h.

Another data set relates to Theileria parva. Briefly: Uptake in erythrocyte infected with Theileria parva (FIG. 2(b)). The class given is cell-based.
For the next data set, the system named is L. passim strain PRA-403. Briefly: Lotmaria passim parasite uptake test. The class given is cell-based. The settings on record: 1 μM and 100 μM, room temperature, 45 min. As to the method: 100 mM stock solutions of BODIPY derivatives were prepared with dimethylsulfoxide (DMSO). L passim strain PRA-403 (ATCC) was cultured in modified medium for C. bombi (Tognazzo et al.). The parasite culture was centrifuged, supernatant was removed and 500 μL of L passim medium with compound (final concentration 500, 100, 10 or 1 μM for BODIPY derivatives) or DMSO (0.1%) control was added. Incubated for 45 min at room temperature.
Uptake tests were performed at 1 μM and 100 μM final concentration of CJ-BODIPY derivatives. After incubation at room temperature for 45 min, fluorescence intensities were evaluated using a microplate reader.

Another data set relates to T. annulata. Briefly: Theileria annulata testing: uptake. To be noted: 1 hour, 37° C. The class given is cell-based. As to the method: T. annulata were cultured using RPMI 1640 with 10% Albumax II (Thermo-Fisher) serum. A standard hemocytometer was used to calculate the concentration of cells in the parent culture. […] For each compound and concentration to be tested, 2 mL of the culture were centrifuged at 1,000 rpm for 5 minutes. The medium was removed before the cells were resuspended in 950 μL of complete medium containing the compound to be tested at the desired concentration. This was prepared from a 100 mM stock solution of compound in DMSO. Once the cells were resuspended they were transferred to a 5 well plate (1 mL capacity per well). They were then incubated for 1 hour at 37° C. in an atmosphere of 5% CO2 in air. After the incubations were complete the contents of each well were transferred to a 10 mL centrifuge tube. Cold RPMI 1640 (Thermofisher) or HBSS added to obtain a volume of 5 mL. The suspension was then centrifuged at 1,000 rpm and at 4° C. for 5 minutes. […] After the final washing the pellet of cells was resuspended in a minimum amount of RPMI 1640 and then spotted onto a glass slide. The slide was then covered with a cover slip and analysed using Olympus BX60 UV microscope system with a Spot RT3 camera and Spot Image software with a FITC fluorescent filter.

Another data set concerns Escherichia coli. Briefly: Bacteria testing: uptake in Escherichia coli. The settings on record: FIG. 2(e); 25 μM, 45 minutes, 37° C.
For another data set, the system named is B. bovis Texas strain. Put plainly: Short-term uptake test in B. bovis infected RBCs (confocal microscopy).
In the next data set the test system is Staphylococcus aureus. Briefly: Bacteria testing: uptake in Staphylococcus aureus. The settings on record: FIG. 2(g); 25 μM, 45 minutes, 37° C.
The subject of data set [1] is Gram-negative and Gram-positive bacteria. Briefly: Bacteria testing: uptake in bacterial cultures. The class given is cell-based. The settings on record: 25 μM, 45 minutes, 37° C.
The test system of a further data set is Enterococcus faecalis. Put plainly: Bacteria testing: uptake in Enterococcus faecalis. The settings on record: FIG. 2(f); 25 μM, 45 minutes, 37° C.
The test system of the next data set is T. brucei. Briefly: Trypanosoma brucei testing: uptake. The class given is cell-based. To be noted: 10-25 μM, 45 minutes, 37° C.
A further data set has as its system P. falciparum. Briefly: Plasmodium falciparum testing: uptake by infected and non-infected red blood cells. To be noted: 25 μM, 45 minutes, 37° C., synchronised stage and mix-stage cultures. Type of data set: cell-based. The protocol:
Compounds 1, 5, 9, 10 and 11 were tested for uptake in both synchronised stage and mix-stage cultures at 25 μM concentrations.

Data set [2] relates to human embryonic kidney cells (HEK293). Put plainly: Cytotoxicity against HEK293 cells (CellTitre-Glo). Type of data set: cell-based. The settings on record: 100 μM, HEK293, 24 hours. The protocol:
A sample compound was incubated at 100 μM with human embryonic kidney cells (HEK293) in Greiner 384 cell star plates for 24 hours before adding CellTitre-Glo® (Promega), an indicator of cell viability giving a luminescent output. In this assay, compounds showing greater than 40% cytotoxicity over two test runs at 100 μM are deemed to have shown cytotoxicity.

Experimental for B. bovis Texas strain: The parasite culture was centrifuged and washed once with GIT medium. RBC's were pellet down, and 20 μl infected RBC mixture (10 μl packed infected RBC+10 μl GIT) was prepared. Then, 180 μl GIT medium with compound the compound to be evaluated (final concentration 25 μM for BODIPY derivatives and 100 μM for phiLOV derivatives) or DMSO (0.1%)/PBS control was added. The samples were incubated for 45 min at 37° C. (Samples were stained 1 μg/mL diluted Hoechst 33342 in GIT medium). After incubation, the samples were centrifuged and the pellet was washed with GIT medium (3×). A final solution of 50% haematocrit infected RBC mixture was transferred to slides to be observed by confocal laser microscopy (Nikon A1).
Uptake experiments were performed by incubating the parasite (˜5% Parasitized Erythrocytes (PPE)) with each derivative at 25 μM and 37° C. for 45 min. After incubation, the fluorescence intensities were calculated from confocal microscope images.
The phiLOV double mutant (R475G, K476C) was used to generate derivatives P11, P1, P8, and P3 which were tested for uptake in B. bovis Texas strain using phiLOV as a control. The derivatives and the control were incubated at 100 μM and 37° C. for 45 min. After incubation, the samples were analysed under confocal microscopy using Hoeschst 33342 (Thermofisher) as co-stain.
Experimental for Enterococcus faecalis: (§1) Bacteria cultured by inoculating LB media (Thermo-Fisher) with the desired bacteria and incubating overnight at 37° C. under an atmosphere of air. The OD600 was then measured and the concentration of bacteria calculated from this. The cultures were then diluted appropriately to give a concentration of 2×10^5 cells per mL. 1 mL of this culture was placed in a 5 mL centrifuge tube then centrifuged at 13,000 rpm for 5 minutes. The supernatant was removed and replaced with 1 mL of 25 μM solution of compound in media. The cultures were incubated for 45 minutes at 37° C. The cultures were centrifuged as before, the supernatant removed and the pellet resuspended in 1 mL of PBS. The cells were washed in this manner twice more. After the final washing the pellet was resuspended in 35 μL of water and spotted onto a slide. The slide was then protected with a coverslide before the images were analysed using an Olympus UV microscope system with a Leica imaging analysis software with a FITC fluorescent filter.
Experimental for Escherichia coli: as §1
Experimental for Staphylococcus aureus: as §1

For `CC1=CC(C)=[N+]2C1=Cc1ccc(CCCn3cc(CCNC(=O)/C=C/NC(=O)[C@H](O)C(C)(C)CO)nn3)n1[B-]2(F)F` [Compound 5, (R,E)-N-((((3-[4,4-Difluoro-5,7-dimethyl-4-bora-3a,4a-diaza-s-indacene-3-yl]propyl)-1H-1,2,3-triazol-4-yl)ethylamino)-3-oxoprop-1-enyl)-2,4-dihydroxy-3,3-dimethylbutanamide], the “uptake: location of fluorescence in C. elegans” value with C. elegans (3 h incubation) is “small amounts of compound 5 were present in the gut cells, and the gut lumen of the larval stages, as well as in the pharynx, gut lumen and gut cells of adult nematodes; also recorded: not detected in the embryos”; in the data set with C. elegans (20 h / overnight incubation), “fluorescence remained in the pharynx, gut cells and gut lumen of both the larval and adult stages; also recorded: Fluorescence was also detected in the early stage of egg development, but not in the embryos”. Moreover, the “distribution in C. elegans” value in the data set on C. elegans (FIG. 2(h), fluorescence microscopy) is “localised with the digestive track of C. elegans”. Also, the “accumulation in Theileria parva infected erythrocyte” value in the data set on Theileria parva is listed as “seen to accumulate within the parasite”. Besides, the “uptake in L. passim (fluorescence intensity, microplate reader)” value with L. passim strain PRA-403 is given as “relatively low uptake”. Also, the “uptake in T. annulata” value with T. annulata was “taken up by T. annulata; also recorded: selectively accumulated within the intracellular parasite”. Further, the “uptake by Escherichia coli” value in the data set on Escherichia coli is listed as “uptake of the conjugate by the organism”. Besides, in the data set with B. bovis Texas strain (25 μM, 37° C., 45 min, ~5% PPE), the “uptake compared to compound 1 (% less)” value was found to be 30%. Also, in the data set on B. bovis Texas strain (FIG. 2(a)), the “uptake by non-infected erythrocytes (B. bovis culture)” value was “Non-infected erythrocytes do not take up the conjugate”. Moreover, the “uptake by Staphylococcus aureus” value in the data set with Staphylococcus aureus was “uptake of the conjugate by the organism”. In addition, the “uptake in bacterial cultures” value in data set [1] was “Uptake was seen both in the case of Gram-negative and Gram-positive bacteria”. Moreover, the “uptake by Enterococcus faecalis” value in the data set on Enterococcus faecalis is on record as “uptake of the conjugate by the organism”. Also, the “uptake in T. brucei” value with T. brucei was “taken up by T. brucei and forms small vesicles all over the trypanosome body, whilst not accumulating neither in the lysosome nor in the nucleus, but rather in a vesicle between the flagellar pocket and the lysosome; also recorded: taken up by T. brucei and forms small vesicles all over the trypanosome body”. Further, the “uptake by infected and non-infected red blood cells” value in the data set with P. falciparum was “selectively taken up by infected red blood cells; also recorded: accumulated within the parasite itself; also recorded: Non-infected erythrocytes do not take up the conjugate”.
Take `CC1(C)OCC(C)(C)C(C(=O)N/C=C/C(=O)NCCCCCO[Si](c2ccccc2)(c2ccccc2)C(C)(C)C)O1` (stereo not shown): the “outcome in the cytotoxicity screen” value in data set [2] was “inactive in the screen”. This compound also had a cytotoxicity in data set [2] (CellTitre-Glo, greater than 40% deemed cytotoxic) of 3.7±0.6%.
